The source made the active and inactive calls. No rule for the calls is given here.
Target: Serine/threonine-protein kinase mTOR (Homo sapiens) (UniProt P42345)
Assay: mTOR FRB domain ligand binding – biophysical, NMR (AID 1648)
Details: NMR binding to FRB domain, chemical shift

Serine/threonine-protein kinase mTOR (Homo sapiens), sequence (P42345 2015-2114): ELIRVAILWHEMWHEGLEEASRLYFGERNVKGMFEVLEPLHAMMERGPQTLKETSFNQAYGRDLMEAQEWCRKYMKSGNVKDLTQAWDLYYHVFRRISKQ

Row | SMILES | Kd
1 | O=C(Nc1cccnc1)c1cccs1 | > 4 mM (inactive)
2 | COc1ccc2nc(SCC(N)=O)[nH]c2c1 | > 4 mM (inactive)
3 | C/C=C(\C)c1nnc(NC(=O)c2ccco2)s1 | > 4 mM (inactive)
4 | COc1cccc(NC(=O)c2cnn(C)c2Cl)c1 | > 4 mM (inactive)
5 | N#CCSc1nc(-c2ccccc2)cs1 | > 4 mM (inactive)
6 | Cc1cc(C(=O)NCc2cccs2)cs1 | > 4 mM (inactive)
7 | COc1ccc(C)cc1S(=O)(=O)N1CCCCC1 | > 4 mM (inactive)
8 | NC(=O)c1ccsc1NC(=O)c1ccccc1[N+](=O)[O-] | > 4 mM (inactive)
9 | CC(=O)c1cc(C(N)=O)c(=S)[nH]c1C | > 4 mM (inactive)
10 | CC(=O)O[C@H]1CC[C@@]2(C)C(C[C@@H](OC(C)=O)[C@@]3(C)C4=CC(=O)O[C@@H](c5ccoc5)[C@]4(C)CCC23)C1(C)C (stereo not given in full) | > 4 mM (inactive)
11 | COc1ccc(-c2nc3nc(C)cc(C)n3n2)cc1 | > 4 mM (inactive)
12 | CC(C)=CC1C(C(=O)O)C1(C)C (stereo not given) | > 4 mM (inactive)
13 | Cc1cc(O)c(C=O)c(O)c1C(=O)O | > 4 mM (inactive)
14 | CC1(c2ccncc2)NC(=O)NC1=O (stereo not given) | > 4 mM (inactive)
15 | Cc1nc2nc(Cc3ccccc3)nn2c(C)c1Cl | > 4 mM (inactive)
16 | Cc1cccn2cc(CNc3ccccc3)nc12 | > 4 mM (inactive)
17 | O=C1CCN(c2ccccc2)N1 | > 4 mM (inactive)
18 | Nc1ccc(CN2CCOCC2)cc1 | > 4 mM (inactive)
19 | Cc1cc(C)n(-c2nncn2N)n1 | > 4 mM (inactive)
20 | COC(=O)c1cccnc1Oc1ccccc1 | > 4 mM (inactive)
21 | COC(=O)C[C@@H]1C2(C)C(=O)[C@@H](CC3=C4CC(O)O[C@@H](c5ccoc5)[C@]4(C)CCC32)[C@H](O)C1(C)C (stereo not given in full) | > 4 mM (inactive)
22 | O=C(O)Cn1c(=O)sc2ccccc21 | > 4 mM (inactive)
23 | COC(=O)[C@]1(C)CC[C@]2(C)CC[C@]3(C)C4=CCc5c(cc(O)c(O)c5C)[C@]4(C)CC[C@@]3(C)C2C1 (stereo not given in full) | > 4 mM (inactive)
24 | Cc1ccc(C)n1NC(=O)c1cccs1 | > 4 mM (inactive)
25 | Cc1cc(C)n(-c2ccc(Cl)nn2)n1 | > 4 mM (inactive)

Row | SMILES | Kd
26 | O=C(Nc1ccccc1C(F)(F)F)N1CCCCCC1 | > 4 mM (inactive)
27 | CC(=O)NCc1nc2ccccc2[nH]1 | > 4 mM (inactive)
28 | CCOC(=O)c1c(SC)nc(=O)[nH]c1C | > 4 mM (inactive)
29 | COC(=O)c1cccc(N)c1 | > 4 mM (inactive)
30 | S=C(NC1CC1)NN1CCOCC1 | > 4 mM (inactive)
31 | Cc1cc(C)nc(N(C#N)Cc2ccccc2)n1 | > 4 mM (inactive)
32 | Cc1occc1C(=O)Nc1cc(C(C)(C)C)on1 | > 4 mM (inactive)
33 | NC(=O)C1CCN(C(=S)c2ccccc2)CC1 | > 4 mM (inactive)
34 | Nc1ccc2c(c1)CCC2=O | > 4 mM (inactive)
35 | OCc1ccc2c(c1)OCCO2 | > 4 mM (inactive)
36 | CC(C)=CCOc1cc2oc(=O)ccc2cc1O | > 4 mM (inactive)
37 | Nn1cnn2c(SCc3ccccc3)nnc12 | > 4 mM (inactive)
38 | Nc1cccc2cccnc12 | > 4 mM (inactive)
39 | O=C(O)c1csc(-c2cccnc2)n1 | > 4 mM (inactive)
40 | O=C(Nc1cnccn1)c1cccs1 | > 4 mM (inactive)
41 | NC1=NC(=O)/C(=C\c2ccco2)S1 | > 4 mM (inactive)
42 | COc1ccc(S(=O)(=O)Nc2ccccn2)c(C)c1C | > 4 mM (inactive)
43 | COc1ccc(-c2nnsc2N)cc1 | > 4 mM (inactive)
44 | O=C1CC(=O)N(Cc2ccco2)C(=S)N1 | > 4 mM (inactive)
45 | O=C1NC2NC(=O)N(c3ccccc3)C2N1 (stereo not given) | > 4 mM (inactive)
46 | c1cncc(C(N2CCOCC2)N2CCOCC2)c1 | > 4 mM (inactive)
47 | COc1ccc(-c2ccc(=O)n(CC(N)=O)n2)cc1 | > 4 mM (inactive)
48 | Cc1ccsc1/C=c1\sc2ncnn2c1=O | > 4 mM (inactive)
49 | O=S1(=O)CCC(NC(=S)Nc2ccccn2)C1 (stereo not given) | > 4 mM (inactive)
50 | O=c1ccn(Cc2ccccc2)c(=O)[nH]1 | > 4 mM (inactive)

From PubChem BioAssay AID1648 (Sanford-Burnham Center for Chemical Genomics, 2009)
